Source: patent US6048888A, “Method and pharmaceutical formulation for treating benign prostatic hyperplasia” (priority 1993, dated 2000)

What was measured:
[1] = test system: melatonin binding sites in the rat brain; experiment: Experiment 5: melatonin binding sites in rat brain, sham-operated and pinealectomized rats; assay type: in vivo
[2] = test system: melatonin binding sites in cytosol of epithelial cells from human BPH prostate tissue; experiment: Specific binding of 125I-melatonin to cytosol from epithelial cells of human BPH tissue; settings: for Bound in Epithelial (specific binding, mean): 4 patients
Procedure: (§1) Tissue specimens were obtained from prostate glands removed by open surgery from patients suffering from urinary obstruction due to benign prostatic hyperplasia. Epithelial and stromal cells were separated from the tissue by filtration through a stainless steel mesh. The cells were then washed with saline and collected by centrifugation (1000 g, 5 min). […] The two preparations were separately homogenized at 4° C. in 0.05 M Tris-HCl, pH 7.4. Each homogenate was spun at 100,000 g for 1 hour at 4° C. and the supernatant was removed with a Pasteur pipette. Melatonin binding was measured by incubating 300 microliters of supernatant containing ca. 20 mcg. protein with carrier-free ^125 I-melatonin at concentrations of 0-1 nM, for 1 hour at 37° C. in the presence of 0.05% Triton X-100. After the incubation period, bound ^125 I-melatonin was separated from free ^125 I-melatonin by vacuum filtration using GFF glass fiber filters saturated with polyethylenimine. Protein concentrations were measured by the method of Lowry et al (J. Biol. Chem., 193: 265, 1951) using bovine serum albumin as a standard. Non-specific binding was determined by incubating the supernatant samples with the specified concentrations of ^125 I-melatonin, but in the presence of a vast excess (10 micromolar) nonradioactive melatonin.

[3] = test system: melatonin binding sites in cytosol of stromal cells from human BPH prostate tissue; experiment: Specific binding of 125I-melatonin to cytosol from stromal cells of human BPH tissue; settings: for Bound in Stromal (specific binding, mean): 4 patients
Procedure: as §1, with “melatonin. These experiments were repeated four times, using specimens from four different patients, with similar results.” for “melatonin.”

human subjects = settings: cited from earlier work
pinealectomized rats = settings: orally administered; cited from earlier work
BPH patients [4] = assay type: in vivo, human
Procedure: In a clinical trial which commenced in April, 1993, 23 BPH patients were recruited and divided into two groups, one group receiving 5 mg melatonin in a sustained release formulation and the other group 50 mg melatonin in a fast release formulation, these dosages being given daily, in the evening. One patient withdrew from the study after 7 days of treatment. […] Up to August, 1993, 6 patients finished 3 months' treatment with melatonin, and the remainder had 1-2 months treatment. All patients will continue the treatment with melatonin until 6 months is completed.

[5] = test system: castrated rats; hypophysectomized animals; settings: cited from earlier work
aged male rats = experiment: Experiment 3: melatonin via drinking water for 30 days in aged male rats; assay type: in vivo, rat; settings: 23-month old male rats
Procedure: The impact of exogenously administered melatonin on central melatonin binding sites and serum testosterone in aged male rats was investigated. Thus, 23-month old male rats were treated with melatonin via the drinking water for 30 days.

adult castrated rats = experiment: Experiment 1: androgen-dependent regrowth of accessory sex organs in adult castrated rats; assay type: in vivo, rat; settings: testosterone propionate 1 mg/kg/day s.c. 4 days, melatonin about 40 mcg per day in drinking water
Procedure: The effects of orally administered melatonin on androgen-dependent prostatal regrowth in adult castrated rats was investigated. Male rats (2.5 months old) were castrated under anesthesia. After 7 days, during which the average weight of the prostate decreased by ca. 60%, the rats were given daily for 4 days, a subcutaneous injection of either oil vehicle (control) or oil vehicle containing testosterone propionate (1 mg/kg body weight per day, at one hour before lights-off). […] In order to determine the weight of the relevant organs, the rats were sacrificed at the end of the 4 days following the first 7 days. […] These studies indicate a direct inhibitory effect of orally administered melatonin on prostatal growth in adult rats, contrary to the dogma that melatonin can affect the pubertal development of the rat only during the first (prepubertal) 40 days of life (Lang et al. Endocrinology,112, 1578-1584, 1983).

[6] = test system: patient with benign prostate hypertrophy; experiment: Example I: BPH patient on 0.5 mg sustained release melatonin daily; assay type: in vivo, human
Procedure: Thus, the patient's PSA level was elevated, and their prostatic acid phosphatase level was slightly above normal. […] Diagnosis after needle biopsy was benign prostate hypertrophy.
The patient began taking 0.5 mg melatonin in the sustained release form daily at 21:00-22:00 hours on Feb. 1, 1992; on a continuing basis, i.e. medication was continued essentially indefinitely. […] Examination of the patient by ultrasonographic scanning on Oct. […] By Jun.

5α reductase = settings: BPH tissue samples; cited from earlier work
[7] = test system: male volunteers suffering from BPH; experiment: Experiment 2: placebo-controlled study of oral melatonin in male volunteers suffering from BPH; assay type: in vivo, human; settings: 5 mg melatonin/day oral at about 10 p.m.; preliminary results
3α reductase = settings: BPH tissue samples; cited from earlier work
[8] = test system: 8-10 month old adult rats; experiment: Experiment 4: long term (~18 months) melatonin via drinking water in adult rats; assay type: in vivo, rat
Procedure: The effects on 8-10 month old adult rats, of long term (~18 months) administration of melatonin via the drinking water (4 mg./l.), on the survival, on central melatonin binding sites, and on serum testosterone, were investigated.

BPH patients [9] = experiment: Example II: ultrastructural morphology of the human prostate after 30 days of melatonin; assay type: in vivo; settings: 5 mg sustained release daily in the evening, 30 days prior to prostatectomy, five BPH patients
Description: Specimens from the prostate glands removed from the treated patients, and from control untreated patients of the same status, were fixed in glutaraldehyde immediately after the excision, embedded in "Epon" and analyzed by electron microscopy.

male and female rats = settings: oral 16-40 mcg. per day; cited from earlier work
[10] = pinealectomized rats, daily injections
[11] = patients who had completed 3 months' treatment
[12] = 4 mg./l. in drinking water, ~18 months

O=C1Nc2ccc(Cl)cc2C(c2ccccc2)=NC1O (stereo not shown) [oxazepam]
melatonin binding at other times of the day [1, 10]: did not significantly effect the binding at other times of the day
melatonin binding sites at 19 hours after lights-on [1, 10]: decreased melatonin binding sites at 19 hours after lights-on
densities of melatonin binding sites in brain areas, time of peak ([1]; sham-operated rats, daily injections 14 days, untreated peak at 13 hours after lights-on): higher at midnight

COc1ccc2[nH]c([125I])c(CCNC(C)=O)c2c1 [^125 I-melatonin]
Bound in Epithelial (specific binding, mean) ([2]; 125I-melatonin 0.05 nM): 6.25 fmol/mg protein
Bound in Epithelial (specific binding, mean) ([2]; 125I-melatonin 0.10 nM): 12.5 fmol/mg protein
Bound in Epithelial (specific binding, mean) ([2]; 125I-melatonin 0.20 nM): 31.3 fmol/mg protein
Bound in Epithelial (specific binding, mean) ([2]; 125I-melatonin 0.30 nM): 45.6 fmol/mg protein
Bound in Epithelial (specific binding, mean) ([2]; 125I-melatonin 0.50 nM): 66.9 fmol/mg protein
Bound in Epithelial (specific binding, mean) ([2]; 125I-melatonin 1.00 nM): 93.1 fmol/mg protein
Bound in Stromal (specific binding, mean) ([3]; 125I-melatonin 0.05 nM): 0.6 fmol/mg protein
Bound in Stromal (specific binding, mean) ([3]; 125I-melatonin 0.10 nM): 2.5 fmol/mg protein
Bound in Stromal (specific binding, mean) ([3]; 125I-melatonin 0.20 nM): 3.7 fmol/mg protein
Bound in Stromal (specific binding, mean) ([3]; 125I-melatonin 0.30 nM): 4.3 fmol/mg protein
Bound in Stromal (specific binding, mean) ([3]; 125I-melatonin 0.50 nM): 8.8 fmol/mg protein
Bound in Stromal (specific binding, mean) ([3]; 125I-melatonin 1.00 nM): 16.2 fmol/mg protein

COc1ccc2[nH]cc(CCNC(C)=O)c2c1 [melatonin]
toxicity (human subjects; human, in vivo): no significant toxicity has been observed
circulating testosterone levels (human subjects; humans): does not increase circulating testosterone levels
ventral prostate and seminal vesicle weight (pinealectomized rats): lowered ventral prostate and seminal vesicle weight
urinary flow (subjective) (BPH patients [4]; 5 mg sustained release or 50 mg fast release daily in the evening, all patients but one who withdrew): subjective improvement of urinary flow
decrease in the PSA level (BPH patients [4]; [11]): approximately 10%
enlargement of the prostate gland (BPH patients [4]; [11]): no further enlargement of the prostate gland
weight of testes and ventral prostate gland ([5]; hypophysectomized animals): decreases the weight of both the testes and the ventral prostate gland
regression of the ventral prostate gland ([5]; subcutaneous 750 mcg., castrated rats, in presence of exogenous testosterone): enhances regression of the ventral prostate gland
melatonin binding sites in brain areas (aged male rats): markedly increased melatonin binding sites in the hypothalamus, medulla-pons, thalamus and cortex
serum testosterone levels vs untreated controls (aged male rats): did not significantly differ
suppressive effect of testosterone on melatonin binding sites in hypothalamus and hippocampus (aged male rats): attenuated a suppressive effect of testosterone on melatonin binding sites
weight / regrowth of seminal vesicles (adult castrated rats): did not significantly affect regrowth of the seminal vesicles
weight / regrowth of ventral prostate (adult castrated rats): prevented the testosterone-mediated regrowth of the prostate
weight of epididemis (adult castrated rats): had hardly any effect on the epididemis
Kd ([2]; 125I-melatonin probe, epithelial cell cytosol, 1 hour at 37° C., read-out: dissociation constant): 600 pM
binding site density ([2]; epithelial cell cytosol): 140 fmol/mg cytosol protein
urinary flow (subjective) ([6]; 0.5 mg sustained release daily at 21:00-22:00, 6 days after initiation): subjective improvement in urinary flow
estimated size of the prostate gland (ultrasonographic scanning) ([6]; 0.5 mg sustained release daily, Oct. 22, 1992, 55 g before and after): no change in estimated size of the prostate gland
residual bladder urine volume retained after two attempts to empty the bladder ([6]; 0.5 mg sustained release daily, Oct. 22, 1992, 100 ml before treatment): zero
5α reductase activity (5α reductase): did not affect 5α reductase activity
urinary flow [7]: immediate improvement in urinary flow in some of the patients
3α reductase activity (3α reductase): stimulate 3α reductase activity
125I-melatonin binding in the various brain areas ([1]; pinealectomized rats, melatonin via drinking water, any time recorded): had no effect on ^125 I-melatonin binding
125I-melatonin binding in hippocampus and midbrain ([1]; sham-operated rats, melatonin via drinking water, 13 hours after lights-on): decrease in ^125 I-melatonin binding
melatonin binding sites in brain of aged rats [8, 12]: significantly increased melatonin binding sites in the medulla-pons and hypothalamus
number of rats surviving at the age of 24-29 months [8, 12]: markedly increased the number of rats surviving
serum testosterone levels vs untreated controls [8, 12]: significantly higher
survival at age 27-29 months ([8]; 4 mg./l. in drinking water, control 7 of 16): these continued to live at age 27-29 months
animals surviving at age 26-28 months ([8]; 4 mg./l. in drinking water, control 8 of 16, P=0.01): 13 of 15 animals
pneumonia ([8]; aged survivors, 5 of 7 control survivors had severe pneumonia): either did not suffer from pneumonia, or had only very weak symptoms
concentration of binding sites in stromal cytosol, factor lower than epithelial ([3]; relative to 140 fmol/mg in epithelial cytosol): approximately 10 x
specific binding in the stromal preparations ([3]; stromal cell cytosol): very low
ultrastructural morphology of prostate specimens (electron microscopy) (BPH patients [9]): evidence for secretion of fresh collagen bundles
pubertal development, including prostate development in the males (male and female rats): delayed pubertal development of male and female rats

CCC(=O)O[C@H]1CC[C@H]2[C@@H]3CCC4=CC(=O)CC[C@]4(C)[C@H]3CC[C@]12C [testosterone, testosterone propionate]
weight / regrowth of seminal vesicles (adult castrated rats): increased the weight of the seminal vesicles and ventral prostate
weight / regrowth of ventral prostate (adult castrated rats): increased the weight of the seminal vesicles and ventral prostate
weight of epididemis (adult castrated rats): had no effect on the epididemis
